Measurements: patent publication US20110143992A1, “Methods and Compositions Related to GHS-R Antagonists” (priority 2006, published 2011)
[ ]: non-standard residue; d: D form.

Columns and labels:
primary brain tumors = conditions: via ERK dependent pathways; cited from earlier work
HIV = conditions: cited from earlier work
glioma cell = conditions: cited from earlier work
[1] = system: breast and pancreatic carcinoma; conditions: cited from earlier work
[2] = in vivo; cited from earlier work
CCR7 = biological target: T1, CCR7 (Homo sapiens, UniProt P32248); experiment: MIP-3β induced calcium release in human T cells; assay type: cell-based
T1 construct: MIP-3β induced calcium release (A) and sphingosine 1 phosphate (B) is not affected by DLG treatment in human T cells; endogenous in cells; host or cells: human T cells
T1 sequence (P32248 25-378): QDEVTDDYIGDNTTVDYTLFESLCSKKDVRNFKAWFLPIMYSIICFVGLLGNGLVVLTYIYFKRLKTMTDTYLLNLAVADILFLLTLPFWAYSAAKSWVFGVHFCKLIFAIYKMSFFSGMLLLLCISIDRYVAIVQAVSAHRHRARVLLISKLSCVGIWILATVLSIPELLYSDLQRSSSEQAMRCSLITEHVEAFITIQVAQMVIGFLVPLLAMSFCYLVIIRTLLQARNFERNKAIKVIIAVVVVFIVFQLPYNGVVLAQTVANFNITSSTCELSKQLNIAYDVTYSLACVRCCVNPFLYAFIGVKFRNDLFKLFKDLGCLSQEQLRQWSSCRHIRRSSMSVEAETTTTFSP

EDG receptor = experiment: Sphingosine 1 phosphate induced calcium release in human T cells; assay type: cell-based
Primary human T cells = experiment: Transwell chemotaxis assay, SDF-1 induced migration of primary human T cells; assay type: cell-based; conditions: SDF-1 100 ng/ml, 2 h
Procedure: (§1) Chemotaxis Assay. Fluorescence-based Transwell chemotaxis assays were performed to assess cell migration. Primary human T cells, CEMR5 and HH cells were labeled with 10 μg/ml Hoechst 33342 (Molecular Probes) in cRPMI for 30 min at 37° C. The cells were then resuspended in RPMI with 1% FBS to a concentration of 1×10^7/ml and 100 ul of Hoechst labeled cells (10^6 cells) were added into the top chamber of the transwells. Cells were treated with DLG in the upper chamber and RPMI (0.6 ml) containing 1% FBS was added to the bottom wells of the 24-well plate with 100 ng/ml of SDF-1α. Transwell chambers with 5 μm pore filters (Corning CoStar, Acton, Mass.) were then placed into the wells. Cells (1×10^6 in 100 μl) were then added to the chambers. After 2 h, the migrated cells in the bottom wells were transferred to triplicate wells of a 96-well plate in 150 μl volumes. Hoechst fluorescence was measured on a Fluoroskan Ascent FL fluorescence plate reader (Thermo Labsystems, Franklin, Mass.) at λex=355 nm, and λem=460 nm. Results are expressed as migration index calculated by subtracting the fluorescence intensity of media alone and comparing the values to the fluorescence intensity (relative number) of cells migrated into the bottom chamber in media alone, which is normalized to a value of 1. Fluorescence values were within the linear range of a standard dilution curve.

[3] = system: CEMR5 human T cell lymphoma cell; experiment: Transwell chemotaxis assay, SDF-1 induced migration of CEMR5 cells; assay type: cell-based; conditions: SDF-1 100 ng/ml
Procedure: as §1

SW1008 astrocytoma cells = experiment: SDF-1 induced ERK phosphorylation, Western blot, SW1008 cells; assay type: cell-based, human; conditions: DLG pretreatment 30 min
Procedure: (§2) Western blot analysis. Control and treated cells were lysed in RIPA buffer supplemented with protease and phosphatase inhibitor cocktail (Sigma-Aldrich, St. Louis, Mo.) and protein concentrations of cell lysates were determined by Bradford assay. Protein lysates (30 μg) were diluted with sample buffer and separated on 4-20% Tris HCl SDS-polyacrylamide gels (Biorad, Hercules, Calif.) and electrophoretically transferred to nitrocellulose membranes (Schleicher & Schuell). The blots were then incubated with rabbit anti-phospho-P42 and pERK (Cell Signaling, Beverly, Mass.). Immune complexes were visualized by incubation with either an anti-rabbit or an anti-mouse HRP-conjugated secondary antibody (Amersham, Piscataway, N.J.). The immunoreactive band was visualized by enhanced chemiluminescence (Perkin-Elmer).

U118 astrocytoma cells = experiment: SDF-1 induced ERK phosphorylation, Western blot, U118 cells; assay type: cell-based, human; conditions: DLG pretreatment 30 min
Procedure: as §2

HIV1 (CXCR4, S1 strain) = experiment: HIV-1 infectivity of CEM-GFP indicator cells (GFP fluorescence); assay type: cell-based; conditions: 1 ug/ml pretreatment 30 min, 90 min viral incubation
Procedure: Neomycin-resistant indicator CEM-GFP cells were used to monitor the infections with HIV1 (CXCR4, S1 strain). Viral entry into CEM cells via CXCR4 results in generation of green fluorescent protein signal. CEM cells (1 million/ml) were pretreated with DLG (1 ug/ml) and SDF-1 (1 ug/ml) for 30 min followed by 90 min viral incubation.

[4] = obese mice, cited from earlier work
[5] = cited from earlier work
CCR5 [6] = biological target: T2, CCR5 (Homo sapiens, UniProt P51681); experiment: MIP-1β induced calcium release in CEM-R5 cells (Fura-2AM); assay type: cell-based; parameters: ATCC; host or cells: CEM-R5 cells; conditions: CEMR5 cells, MIP-1β 100 ng/ml
CXCR4 [7] = biological target: T3, CXCR4 (Homo sapiens, UniProt P61073); experiment: SDF-1 induced intracellular calcium mobilization (Fura-2AM) in primary human T cells; assay type: cell-based; parameters: endogenous in cells; host or cells: primary human T cells purified from donor PBMCs
Procedure: Intracellular calcium mobilization. Measurement of intracellular calcium release in response to ghrelin and SDF-1 was performed as described previously (Dixit et al. J. Clin. Invest. 114, 57-66 (2004)). Cells were incubated in PBS containing […] Fura-2 acetoxymethyl ester (Molecular Probes) for 30 minutes at room temperature. The cells were subsequently washed and then resuspended at 1×10^6/ml in PBS. A total of 2 ml of the cell suspension was placed in a continuously stirring cuvette at room temperature in an LS50B spectrophotometer (Perkin-Elmer, Wellesley, Mass., USA). Labeled T cells were treated with SDF-1 (100 ng/ml) and along with DLG (Sigma-Aldrich) at various concentrations. Fluorescence was monitored at λex1=340 nm, λex2=380 nm, and λcm=510 nm. The data are presented as the relative ratio of fluorescence excited at 340 and 380 nm.

CXCR4 [8] = biological target: T3, CXCR4; experiment: flow cytometry, whole cell ligand binding on T-SUP1 cells; competitor biotinylated SDF-1 + avidin-FITC; DLG 10^-2 M for 15 minutes by the legend of FIG. 5
CCR5 [9] = biological target: T2, CCR5; experiment: flow cytometry, whole cell ligand binding on T-SUP1 cells; competitor biotinylated MIP-1β + avidin-FITC; DLG 10^-2 M for 15 minutes by the legend of FIG. 5

T2 sequence (P51681 whole entry): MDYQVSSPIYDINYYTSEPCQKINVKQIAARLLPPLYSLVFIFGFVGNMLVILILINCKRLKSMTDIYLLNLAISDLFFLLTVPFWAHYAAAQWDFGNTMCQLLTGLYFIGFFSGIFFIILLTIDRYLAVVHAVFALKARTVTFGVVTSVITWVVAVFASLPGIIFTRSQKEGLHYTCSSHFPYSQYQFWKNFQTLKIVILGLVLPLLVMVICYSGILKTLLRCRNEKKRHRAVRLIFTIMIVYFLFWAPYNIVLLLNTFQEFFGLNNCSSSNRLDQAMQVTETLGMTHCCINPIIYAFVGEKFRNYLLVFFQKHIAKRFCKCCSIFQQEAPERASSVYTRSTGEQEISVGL
T3 sequence (P61073 whole entry): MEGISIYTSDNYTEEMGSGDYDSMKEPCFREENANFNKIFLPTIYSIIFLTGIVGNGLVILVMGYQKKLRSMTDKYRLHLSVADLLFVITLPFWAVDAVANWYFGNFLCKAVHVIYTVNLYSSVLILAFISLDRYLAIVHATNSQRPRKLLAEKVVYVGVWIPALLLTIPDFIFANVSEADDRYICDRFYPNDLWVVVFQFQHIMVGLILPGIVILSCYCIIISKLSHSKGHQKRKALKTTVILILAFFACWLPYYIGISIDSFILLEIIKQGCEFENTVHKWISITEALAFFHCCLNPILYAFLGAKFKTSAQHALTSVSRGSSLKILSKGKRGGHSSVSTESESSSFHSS

## c1cc(CN2CCCNCCNCCCNCC2)ccc1CN1CCCNCCNCCCNCC1 [AMD3100]
Primary brain tumors
  intracranial growth of primary brain tumors: effectively inhibit intracranial growth of primary brain tumors
HIV
  CXCR4 mediated HIV viral entry: successfully utilized to block CXCR4 mediated HIV viral entry
Glioma cell
  glioma cell invasion: blocks glioma cell invasion
[1]
  metastasis of breast and pancreatic carcinoma: blocks
[2]
  allergy and collagen induced arthritis: decreases allergy and collagen induced arthritis

## H-His-D-Trp-D-Lys-Trp-D-Phe-Lys-NH2 (H-H[dW][dK]W[dF]K-NH2; SMILES NCCCC[C@H](NC(=O)[C@@H](Cc1ccccc1)NC(=O)[C@H](Cc1c[nH]c2ccccc12)NC(=O)[C@@H](CCCCN)NC(=O)[C@@H](Cc1c[nH]c2ccccc12)NC(=O)[C@@H](N)Cc1c[nH]cn1)C(N)=O) [DLG, GHS-R antagonist peptide, obtained from Sigma-Aldrich]
CCR7
  effect on MIP-3β mediated calcium flux: did not affect
EDG receptor
  effect on sphingosine 1 phosphate mediated calcium flux: did not affect
Primary human T cells
  inhibition of SDF-1 induced T cell migration: marked dose dependent inhibition
[3]
  inhibition of SDF-1 induced migration: inhibited the migration
SW1008 astrocytoma cells
  effect on SDF-1 induced ERK/P42 phosphorylation: abrogated the SDF-1 induced signaling
U118 astrocytoma cells
  effect on SDF-1 induced ERK/P42 phosphorylation: abrogated the SDF-1 induced signaling
HIV1 (CXCR4, S1 strain)
  HIV infectivity (GFP fluorescence intensity) compared to untreated cells: substantial reduction in HIV infectivity
[4]; repeated administration
  body weight: reduce body weight in obese mice
  glycaemic control and insulin resistance: improve their glycaemic control and insulin resistance
[4]
  muscle mass: without affecting the muscle mass
  size of abdominal fat pads: reduced the size of abdominal fat pads
[5]; fed state when circulating ghrelin levels are low
  food intake: does not affect food intake in the fed state
[5]; in vivo
  adverse side effects: without any adverse side effects
CCR5 [6]
  inhibition of calcium release post MIP-1β-CCR5 interaction: dose dependent inhibition of calcium release
CXCR4 [7]; primary human T cells, SDF-1 100 ng/ml, DLG at various concentrations
  inhibition of SDF-1-induced calcium flux: markedly inhibited in a dose dependent fashion
CXCR4 [7]; unstimulated primary human T cells
  calcium flux by the substance alone: did not flux calcium by itself

B1: D-[Lys3]GHRP-6 (H-His-D-Trp-D-Lys-Trp-D-Phe-Lys-NH2) (peptide)
peptide: H-H[dW][dK]W[dF]K-NH2
SMILES: NCCCC[C@H](NC(=O)[C@@H](Cc1ccccc1)NC(=O)[C@H](Cc1c[nH]c2ccccc12)NC(=O)[C@@H](CCCCN)NC(=O)[C@@H](Cc1c[nH]c2ccccc12)NC(=O)[C@@H](N)Cc1c[nH]cn1)C(N)=O
CXCR4 [8]
  percent reduction of maximal binding: 50 to 60%
CCR5 [9]
  percent reduction of maximal binding: 50 to 60%
